Reference: patent US8778929B2, “Substituted heteroaryl inhibitors of B-RAF” (Boehringer Ingelheim International GmbH, priority 2008, dated 2014)

target: B-Raf (V600E)-kinase (Homo sapiens, UniProt P15056, V600E); assay: Kinase test B-Raf (V600E); type: biochemical; settings: compound concentration 2 μM; 100% = no inhibition, 0% = total inhibition; read-out: % CTL (residual activity of the enzyme relative to DMSO control)
Method in brief: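 Kinase preincubated with compound (typically 2 μM to 0.119 nM or 0.017 nM, 5% DMSO) 1 h at RT, then reacted 60 min at RT with 250 μM ATP and biotinylated MEK1. Phospho-MEK (Ser217/221) captured on streptavidin, detected by europium time-resolved fluorescence; IC50 from dose-response curves.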

B-Raf (V600E)-kinase, sequence (P15056 whole entry V600E): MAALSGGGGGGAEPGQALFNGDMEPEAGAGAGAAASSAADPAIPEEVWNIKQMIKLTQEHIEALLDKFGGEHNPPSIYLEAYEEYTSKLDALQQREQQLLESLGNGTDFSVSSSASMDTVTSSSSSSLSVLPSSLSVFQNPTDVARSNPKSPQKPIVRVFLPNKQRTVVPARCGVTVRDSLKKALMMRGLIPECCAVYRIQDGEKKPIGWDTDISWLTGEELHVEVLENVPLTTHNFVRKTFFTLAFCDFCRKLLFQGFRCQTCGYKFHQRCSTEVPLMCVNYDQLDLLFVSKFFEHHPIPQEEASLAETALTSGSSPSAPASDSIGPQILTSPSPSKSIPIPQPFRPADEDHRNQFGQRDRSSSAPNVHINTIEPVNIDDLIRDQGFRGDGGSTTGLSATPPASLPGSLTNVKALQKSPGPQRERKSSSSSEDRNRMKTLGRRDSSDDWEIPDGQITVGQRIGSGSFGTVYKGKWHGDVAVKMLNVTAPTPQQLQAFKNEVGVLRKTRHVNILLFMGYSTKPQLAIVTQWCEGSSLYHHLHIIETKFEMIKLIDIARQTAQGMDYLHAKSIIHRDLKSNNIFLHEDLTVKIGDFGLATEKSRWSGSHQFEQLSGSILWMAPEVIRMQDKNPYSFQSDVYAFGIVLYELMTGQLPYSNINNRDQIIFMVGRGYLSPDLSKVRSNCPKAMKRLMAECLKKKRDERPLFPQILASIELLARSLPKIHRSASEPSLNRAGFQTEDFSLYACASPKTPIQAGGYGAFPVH

remaining activity at 2 µM [%] | SMILES
3.9 | Cc1ncc(NC(=O)c2cc(OC(F)(F)F)cc(N3CCOCC3)c2)cc1-n1cc(-c2cnn(C)c2C)nn1 [XII-25]
2.2 | Cc1ncc(NC(=O)c2cc(OC(F)(F)F)cc(N3CCN(C)CC3)c2)cc1-n1cc(-c2cncnc2)nn1 [XII-26]
2.4 | Cc1ncc(NC(=O)c2cc(OC(F)(F)F)cc(N3CCN(C)CC3)c2)cc1-n1cc(-c2cncc(C#N)c2)nn1 [XII-27]
2 | Cc1ncc(NC(=O)c2cc(OC(F)(F)F)cc(N(C)C3CCN(C)C3)c2)cc1-n1cc(-c2cnn(C)c2C)nn1 (centres unmarked) [XII-28]
1.6 | Cc1ncc(NC(=O)c2cc(OC(F)(F)F)cc(N3CCC(N(C)C)C3)c2)cc1-n1cc(-c2cnn(C)c2C)nn1 (centres unmarked) [XII-29]
1.8 | Cc1ncc(NC(=O)c2cc(OC(F)(F)F)cc(C3=CCNCC3)c2)cc1-n1cc(-c2cnn(C)c2C)nn1 [XII-30]
1.9 | COCCCN1CCN(c2cncc(-c3cn(-c4cc(NC(=O)c5cc(C(F)(F)F)ccn5)cnc4C)nn3)c2)CC1 [XII-31]
2.9 | Cc1ncc(NC(=O)c2cc(C(F)(F)F)ccn2)cc1-n1cc(-c2cncc(N3CCN(C(C)(C)C)CC3)c2)nn1 [XII-32]
1.7 | CCOCCN1CCN(c2cncc(-c3cn(-c4cc(NC(=O)c5cc(C(F)(F)F)ccn5)cnc4C)nn3)c2)CC1 [XII-33]
0.8 | Cc1ncc(NC(=O)c2cccc(C(C)(C)C#N)c2)cc1-n1cc(-c2cncc(N3CCN(C)CC3)c2)nn1 [XII-34]
1.7 | Cc1ncc(NC(=O)c2cc(C(F)(F)F)ccn2)cc1-n1cc(-c2cncc(N3CCN(C(C)C)CC3)c2)nn1 [XII-35]
1.3 | Cc1ncc(NC(=O)c2cccc(OC(F)(F)F)c2)cc1-n1cc(-c2cncc(N3CCN(C)CC3)c2)nn1 [XII-36]
2.3 | Cc1ncc(NC(=O)c2cc(C(F)(F)F)ccn2)cc1-n1cc(-c2cncc(N3CCN(CC(C)C)CC3)c2)nn1 [XII-37]
2.1 | CCN1CCN(c2cncc(-c3cn(-c4cc(NC(=O)c5cc(C(F)(F)F)ccn5)cnc4C)nn3)c2)CC1 [XII-38]
2.5 | CCN1CCN(c2cncc(-c3cn(-c4cc(NC(=O)c5ccc(OC)c(C(F)(F)F)c5)cnc4C)nn3)c2)CC1 [XII-39]
3.1 | CCCN1CCN(c2cncc(-c3cn(-c4cc(NC(=O)c5cc(C(F)(F)F)ccn5)cnc4C)nn3)c2)CC1 [XII-41]
4.3 | Cc1ncc(NC(=O)c2cccc(OC(F)(F)F)c2)cc1-n1cc(-c2cncc(N3CCN(C(C)C)CC3)c2)nn1 [XII-42]

remaining activity at 2 µM [%] | SMILES
2.1 | COc1ccc(C(=O)Nc2cnc(C)c(-n3cc(-c4cncc(N5CCN(C(C)C)CC5)c4)nn3)c2)cc1C(F)(F)F [XII-43]
1.9 | CCOCCN1CCN(c2cncc(-c3cn(-c4cc(NC(=O)c5ccc(OC)c(C(F)(F)F)c5)cnc4C)nn3)c2)CC1 [XII-44]
2.9 | COc1ccc(C(=O)Nc2cnc(C)c(-n3cc(-c4cncc(N5CCN(C(C)(C)C)CC5)c4)nn3)c2)cc1C(F)(F)F [XII-45]
1.8 | COCCCN1CCN(c2cncc(-c3cn(-c4cc(NC(=O)c5ccc(OC)c(C(F)(F)F)c5)cnc4C)nn3)c2)CC1 [XII-46]
4 | Cc1ncc(NC(=O)c2cccc(OC(F)(F)F)c2)cc1-n1cc(-c2cncc(N3CCN(C(C)(C)C)CC3)c2)nn1 [XII-47]
2.4 | COCCCN1CCN(c2cncc(-c3cn(-c4cc(NC(=O)c5cccc(OC(F)(F)F)c5)cnc4C)nn3)c2)CC1 [XII-48]
2.3 | Cc1ncc(NC(=O)c2cccc(C(C)(C)C#N)c2)cc1-n1cc(-c2cncc(N3CCN(CC4CC4)CC3)c2)nn1 [XII-49]
6.8 | Cc1ncc(NC(=O)c2cccc(C(C)(C)C#N)c2)cc1-n1cc(-c2cncc(N3CCN(C(C)C)CC3)c2)nn1 [XII-50]
2.3 | CCN1CCN(c2cncc(-c3cn(-c4cc(NC(=O)c5cccc(C(C)(C)C#N)c5)cnc4C)nn3)c2)CC1 [XII-51]
7 | Cc1ncc(NC(=O)c2cccc(C(C)(C)C#N)c2)cc1-n1cc(-c2cncc(NCCN(C)C)c2)nn1 [XII-52]
7 | Cc1ncc(NC(=O)c2cccc(C(C)(C)C#N)c2)cc1-n1cc(-c2cncc(N(C)CCN(C)C)c2)nn1 [XII-53]
10.8 | CCOCCN1CCN(c2cncc(-c3cn(-c4cc(NC(=O)c5cccc(OC(F)(F)F)c5)cnc4C)nn3)c2)CC1 [XII-54]
1.8 | CCN1CCN(c2cncc(-c3cn(-c4cc(NC(=O)c5cccc(OC(F)(F)F)c5)cnc4C)nn3)c2)CC1 [XII-55]
0.9 | Cc1ncc(NC(=O)c2cc(C(F)(F)F)ccn2)cc1-n1cc(-c2cncc(N3CCN(C)CC3)c2)nn1 [XII-57]
3.8 | Cc1ncc(NC(=O)c2cccc(C(C)(C)C#N)c2)cc1-n1cc(-c2cncc(CO)c2)nn1 [XII-63]
0.9 | Cc1ncc(NC(=O)c2cccc(C(C)(C)C#N)c2)cc1-n1cc(-c2cncc(CN(C)C)c2)nn1 [XII-64]
0.9 | Cc1ncc(NC(=O)c2cccc(C(C)(C)C#N)c2)cc1-n1cc(-c2cncc(CN3CCCC3)c2)nn1 [XII-65]

same assay, conditions: measurement at 0.29 μM (*); 100% = no inhibition, 0% = total inhibition; read-out: % CTL (residual activity of the enzyme relative to DMSO control)

remaining activity at 0.29 µM [%] | SMILES
3 | COc1ccc(C(=O)Nc2cnc(C)c(-n3cc(-c4cncc(N5CCN(C)CC5)c4)nn3)c2)cc1C(F)(F)F [XII-40]
